Laboratory results published in the Kinase Knowledgebase extract (Sharma et al. 2016).

Target: MAPK14 (UniProt Q16539)
Assay: Inhibition of MAPK14 Kinase Activity

Sequence of MAPK14 (Q16539 whole entry, looked up): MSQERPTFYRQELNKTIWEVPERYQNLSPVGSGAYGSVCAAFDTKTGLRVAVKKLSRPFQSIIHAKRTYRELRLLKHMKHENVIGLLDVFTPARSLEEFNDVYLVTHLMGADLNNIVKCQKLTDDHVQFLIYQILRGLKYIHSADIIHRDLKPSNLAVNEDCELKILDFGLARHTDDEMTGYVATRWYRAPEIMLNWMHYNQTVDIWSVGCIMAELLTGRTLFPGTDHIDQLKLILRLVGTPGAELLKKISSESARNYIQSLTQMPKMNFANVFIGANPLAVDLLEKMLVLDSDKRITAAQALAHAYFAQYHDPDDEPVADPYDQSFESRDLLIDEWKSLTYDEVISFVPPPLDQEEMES

IC50, ≤ 5 µM:
CC(C)S(=O)(=O)n1c(N)nc2ccc(-c3c(-c4ccccc4)ncn3C3CCCCC3)cc21, Nc1ccccc1Cc1nc2ccc(-c3[nH]cnc3-c3ccccc3)cc2[nH]1, CC(C)S(=O)(=O)n1c(N)nc2ccc(-c3c(-c4ccccc4)ncn3CC3CC3)cc21, CC(C)S(=O)(=O)n1c(N)nc2ccc(-c3nc(-c4ccc(C(F)(F)F)cc4)[nH]c3-c3ccccc3)cc21, CC(C)S(=O)(=O)n1c(N)nc2ccc(-c3c(-c4ccc(F)cc4)ncn3C)cc21, CC(C)S(=O)(=O)n1c(N)nc2ccc(-c3c(-c4ccc(F)cc4F)ncn3C3CCCCC3)cc21, CC(C)S(=O)(=O)n1c(N)nc2ccc(-c3nc(-c4ccccc4OC(F)(F)F)[nH]c3-c3ccccc3)cc21, CC(C)S(=O)(=O)n1c(N)nc2ccc(-c3nc(-c4ccc(F)cc4F)[nH]c3-c3ccc(F)cc3F)cc21, CCc1nc(-c2ccccc2F)c(-c2ccc3nc(N)n(S(=O)(=O)C(C)C)c3c2)n1C1CC1, CC(C)S(=O)(=O)n1c(N)nc2ccc(-c3nc(CN(C)C)[nH]c3-c3ccccc3)cc21, CC(C)S(=O)(=O)n1c(N)nc2ccc(-c3c(-c4ccccc4)ncn3C3CCC(=O)CC3)cc21, CC(C)S(=O)(=O)n1c(N)nc2ccc(-c3nc(C4CCN(CCC(F)(F)F)CC4)[nH]c3-c3ccccc3)cc21, CC(C)S(=O)(=O)n1c(N)nc2ccc(-c3c(-c4ccc(F)cc4)ncn3C3CCCC3)cc21, CC(C)S(=O)(=O)n1c(N)nc2ccc(-c3c(-c4ccccc4)ncn3Cc3ccccn3)cc21, CC(C)S(=O)(=O)n1c(N)nc2ccc(-c3nc(-c4c(F)cccc4F)[nH]c3-c3ccc(F)cc3)cc21, CC(C)S(=O)(=O)n1c(N)nc2ccc(-c3nc(-c4ccccc4C(F)(F)F)[nH]c3-c3ccccc3)cc21, CC(C)S(=O)(=O)n1c(N)nc2ccc(-c3c(-c4ccccc4)ncn3C3CCN(Cc4ccccc4)CC3)cc21, CC(C)S(=O)(=O)n1c(N)nc2ccc(-c3nc(CNCCN4CCCCC4)[nH]c3-c3ccccc3)cc21, CC(C)S(=O)(=O)n1c(N)nc2ccc(-c3nc(-c4ccccc4N4CCOCC4)[nH]c3-c3ccccc3)cc21, CC(C)S(=O)(=O)n1c(N)nc2ccc(-c3nc(-c4c(Cl)cccc4Cl)[nH]c3-c3ccccc3)cc21, CC(C)S(=O)(=O)n1c(N)nc2ccc(-c3c(-c4ccccc4F)ncn3C3CC3)cc21, CC(C)S(=O)(=O)n1c(N)nc2ccc(-c3c(-c4ccccc4)ncn3C3CC3)cc21, CC(C)S(=O)(=O)n1c(N)nc2ccc(-c3nc(-c4cccc(OCCN(C)C)c4)[nH]c3-c3ccccc3)cc21, Nc1nc2ccc(-c3nc(-c4cccs4)[nH]c3-c3ccccc3)cc2[nH]1, CC(C)S(=O)(=O)n1c(N)nc2ccc(-c3nc(-c4ccc(Cl)cc4F)[nH]c3-c3ccccc3)cc21, CC(C)S(=O)(=O)n1c(N)nc2ccc(-c3nc[nH]c3-c3cccc(F)c3F)cc21, CCc1nc(-c2ccc3nc(N)n(S(=O)(=O)C(C)C)c3c2)c(-c2ccc(F)cc2)[nH]1, CN(C)S(=O)(=O)n1c(N)nc2ccc(-c3nc(-c4c(F)cccc4F)[nH]c3-c3ccccc3)cc21, CC(C)S(=O)(=O)n1c(N)nc2ccc(-c3cc(C(C)(C)C)nn3-c3ccccc3)cc21, CC(C)S(=O)(=O)n1c(N)nc2ccc(-c3[nH]n(-c4cc(F)ccc4F)c(=O)c3-c3ccccc3)cc21, CC(C)S(=O)(=O)n1c(N)nc2ccc(-c3nc(C4CCN(C)CC4)[nH]c3-c3ccccc3)cc21, CC(C)S(=O)(=O)n1c(N)nc2ccc(-c3nc(CN4CCCCC4)[nH]c3-c3ccccc3)cc21, Cc1ccccc1-c1nc(-c2ccc3nc(N)n(S(=O)(=O)C(C)C)c3c2)c(-c2ccccc2)[nH]1, Cc1cccc(-c2[nH]c(C)nc2-c2ccc3nc(N)n(S(=O)(=O)C(C)C)c3c2)c1, CC(C)S(=O)(=O)n1c(N)nc2ccc(-c3c(-c4ccc(F)cc4)ncn3C3CCNCC3)cc21, CNc1ccc(-c2nc(-c3ccc4nc(N)n(S(=O)(=O)C(C)C)c4c3)c(-c3ccccc3)[nH]2)c(F)c1, CC(C)S(=O)(=O)n1c(N)nc2ccc(-c3nc[nH]c3-c3ccccc3F)cc21, CC(C)S(=O)(=O)n1c(N)nc2ccc(-c3c(-c4ccccc4F)nc(Br)n3C3CC3)cc21, CC(C)S(=O)(=O)n1c(N)nc2ccc(-c3nc[nH]c3-c3ccc(F)cc3F)cc21, CC(C)S(=O)(=O)n1c(N)nc2ccc(-c3nc(-c4cccc(OCCC5=CC=CNC=C5)c4)[nH]c3-c3ccccc3)cc21, CC(C)S(=O)(=O)n1c(N)nc2ccc(-c3c(-c4ccc(F)cc4)ncn3C3CCN(C(=O)OC(C)(C)C)CC3)cc21, Cc1nc(-c2ccc3nc(N)n(S(=O)(=O)C(C)C)c3c2)c(-c2ccccc2)[nH]1, CC(C)S(=O)(=O)n1c(N)nc2ccc(-c3nc(-c4cc(F)cc(F)c4)[nH]c3-c3ccccc3)cc21, CC(C)S(=O)(=O)n1c(N)nc2ccc(-c3c(-c4ccccc4)ncn3[C@H](CO)CC3CCCCC3)cc21, CC(C)S(=O)(=O)n1c(N)nc2ccc(-c3c(-c4ccc(F)cc4)ncn3C3CCCCC3)cc21, CC(C)S(=O)(=O)n1c(N)nc2ccc(-c3c(-c4ccccc4)nc4ccccn34)cc21, CC(C)S(=O)(=O)n1c(N)nc2ccc(-c3c(-c4ccccc4)ncn3-c3ccc(N)cc3)cc21, CC(C)S(=O)(=O)n1c(N)nc2ccc(-c3c(-c4ccccc4)ncn3C3CCOCC3)cc21, CC(C)S(=O)(=O)n1c(N)nc2ccc(-c3[nH]n(-c4ccc(C(F)(F)F)cc4)c(=O)c3-c3ccccc3)cc21, CC(C)S(=O)(=O)n1c(N)nc2ccc(-c3nc(-c4ccccc4SC(F)(F)F)[nH]c3-c3ccccc3)cc21, CC(C)S(=O)(=O)n1c(N)nc2ccc(-c3c(-c4ccccc4)ncn3[C@H]3CC[C@H](O)CC3)cc21, CC(C)S(=O)(=O)n1c(N)nc2ccc(-c3nc(C(F)(F)F)[nH]c3-c3ccccc3)cc21, CC(C)S(=O)(=O)n1c(N)nc2ccc(-c3c(-c4ccccc4)ncn3[C@@H](CO)c3ccccc3)cc21, CC(C)S(=O)(=O)n1c(N)nc2ccc(-c3nc(C4CCN(CCN(C)C)CC4)[nH]c3-c3ccccc3)cc21, COC(=O)CCn1cnc(-c2ccccc2)c1-c1ccc2nc(N)n(S(=O)(=O)C(C)C)c2c1, CC(C)S(=O)(=O)n1c(N)nc2ccc(-c3nc(-c4ccncc4)[nH]c3-c3ccccc3)cc21, CC(C)S(=O)(=O)n1c(N)nc2ccc(-c3nc(C4CCN(Cc5ccccn5)CC4)[nH]c3-c3ccccc3)cc21, CC(C)S(=O)(=O)n1c(N)nc2ccc(-c3sc(-c4ccccc4)nc3-c3ccccc3)cc21, CC(C)S(=O)(=O)n1c(N)nc2ccc(-c3nc(C(C)(C)C)[nH]c3-c3ccc(F)cc3)cc21, Cc1cc(F)ccc1-c1[nH]c(-c2ccc(F)cc2)nc1-c1ccc2nc(N)n(S(=O)(=O)C(C)C)c2c1, CC(C)S(=O)(=O)n1c(N)nc2ccc(-c3nc(-c4cccs4)[nH]c3-c3ccc(F)cc3)cc21, CC(C)S(=O)(=O)n1c(N)nc2ccc(-c3nc(-c4c(F)cccc4F)[nH]c3-c3ccccc3)cc21, CC(C)S(=O)(=O)n1c(N)nc2ccc(-c3c(-c4ccccc4)ncn3C3CC(C)(C)NC(C)(C)C3)cc21, CC(C)S(=O)(=O)n1c(N)nc2ccc(-c3nc(C4CC4)[nH]c3-c3ccc(F)cc3)cc21, CC(C)S(=O)(=O)n1c(N)nc2ccc(-c3nc(C4CCCCC4)[nH]c3-c3ccccc3)cc21, CC(C)CN1CCC(c2nc(-c3ccc4nc(N)n(S(=O)(=O)C(C)C)c4c3)c(-c3ccccc3)[nH]2)CC1, COc1ccc(Cn2cnc(-c3ccccc3)c2-c2ccc3nc(N)n(S(=O)(=O)C(C)C)c3c2)cc1, CC(C)S(=O)(=O)n1c(N)nc2ccc(-c3[nH]n(-c4ccccc4)c(=O)c3-c3ccc(F)cc3)cc21, CC(C)S(=O)(=O)n1c(N)nc2ccc(-c3c(-c4ccc(F)cc4)ncn3CCN3CCOCC3)cc21, CC(C)S(=O)(=O)n1c(N)nc2ccc(-c3c(-c4ccccc4)ncn3C3CCN(C(=O)OC(C)(C)C)CC3)cc21, CC(C)S(=O)(=O)n1c(N)nc2ccc(-c3nc(CC(C)(C)C)[nH]c3-c3ccc(F)cc3)cc21, CC(C)S(=O)(=O)n1c(N)nc2ccc(-c3c(-c4ccccc4)ncn3C3CCC(NC(=O)OC(C)(C)C)CC3)cc21 (stereo unspecified), CC(C)S(=O)(=O)n1c(N)nc2ccc(-c3nc(-c4c(F)cccc4C(F)(F)F)[nH]c3-c3ccccc3)cc21, CC(C)S(=O)(=O)n1c(N)nc2ccc(-c3nc(C4CCN(Cc5ccccc5)CC4)[nH]c3-c3ccccc3)cc21, CC(C)S(=O)(=O)n1c(N)nc2ccc(-c3c(-c4ccccc4)nn4c3CCC4)cc21, CC(C)S(=O)(=O)n1c(N)nc2ccc(-c3c(-c4ccc(F)cc4)ncn3CC3CC3)cc21
